According to patent US20150157575A1, “Pharmaceutical Formulations Comprising Vilazodone” (Forest Laboratories Holdings Ltd., priority 2013, published 2015):
Like-named read-outs stand apart in the source and are kept apart here.

Key:
[1] = target: norepinephrine reuptake site (Homo sapiens, UniProt P23975); conditions: cited from earlier work
clinical = assay: clinical; set-up: species or system human; conditions: both sexes, human, in vivo, Mean trough plasma concentration
Procedure: An open-label, multiple-dose, single-sequence study to evaluate the effect of steady-state carbamazepine XR, 400 mg once daily, a CYP3A4 substrate and inducer, on the pharmacokinetics of steady-state vilazodone 40 mg tablets once daily, with hardness of more than 10 kp and less than 14 kp, preferably about 12 kp as shown in Table 3 (No Tablet Breakage). Vilazodone was co-administered with carbamazepine XR (extended release formulation). Carbamazepine is an antiepileptic drug approved for the treatment of psychomotor and grand mal seizures is metabolized by CYP3A4, and is a CYP3A4 inducer.
All subjects were healthy, nonsmoking male or female volunteers who were 18-45 (Study 2) years of age. Inclusion and exclusion criteria were typical of the criteria used in pharmacokinetic studies in healthy volunteers as known in the art. Inclusion criteria used included agreement to use an effective measure of contraception, body mass index (BMI)>18 and ≦30 kg/m^2 (BMI=18 allowed), normal or clinically non-significant results on physical examination, medical history, serum chemistry, hematology, and urinalysis; negative hepatitis B antigen and C antibody tests, and negative HIV test at screening. Exclusion criteria included clinically significant electrocardiogram results or QT prolongation, clinically significant disease state, history of alcohol abuse, ingestion of food, drink, or drug that may interfere with CYP enzyme activity (e.g., cruciferous vegetables, caffeine, alcohol), known sensitivity to study drug or other drugs from the same class, and use of prohibited concomitant prescription or over-the counter medications.
All volunteers received 4 treatments (A, B, C, and D) in the same, fixed sequence: Treatment A consisted of vilazodone alone on Days 1-9 and was followed by a 14-day washout, Treatment B was carbamazepine XR alone for 19 days (Days 24-42), Treatment C was vilazodone plus carbamazepine XR for 9 days (Days 43-51), and Treatment D was carbamazepine alone for 3 days (Days 52-54). Once-daily doses of study drug were administered in the morning after breakfast; twice-daily doses were administered in the morning after breakfast and 12 hours later in the evening after dinner Study drug was administered within 30 minutes after the end of the corresponding meal.
Blood samples to determine plasma concentrations of vilazodone, M17 (the metabolite of vilazodone), carbamazepine, and carbamazepine-10,11-epoxide (one of the pharmacologically active metabolites of carbamazepine) were collected into tubes pretreated with K2EDTA. For vilazodone and M17 analyses, blood samples (approximately 6 mL) were collected at pre-dose on Days 1, 7, 8, 49, and 50. […] For the analyses of carbamazepine and carbamazepine-10,11-epoxide, blood samples were collected at pre-dose on Days 24, 40, 41, 49 and 50.
Blood samples were centrifuged at no less than 2500 g for 10 minutes at 4° C. within 30 minutes of the sample draw. Plasma was harvested and transferred to polypropylene tubes and flash frozen in a dry ice bath with isopropyl alcohol or methanol. Samples for vilazodone analyses were stored at approximately −70° C. and analyzed. Samples for carbamazepine analyses were stored at −20° C. and analyzed.
Plasma samples were analyzed for vilazodone, M17, carbamazepine and/or carbamazepine-10,11-epoxide concentrations using liquid chromatography coupled with tandem mass spectrometry (LC/MS/MS). For vilazodone and M17, analytes of interest were detected by electrospray ionization mass spectrometry in the negative ion multiple reaction monitoring mode. The assay was linear in the concentration range of 0.5 to 250 ng/mL for vilazodone and 0.25 to 125 ng/mL for M17.
Based on 50 ìL of human plasma with K2EDTA as the anticoagulant, the lower limit of quantification (LLOQ) was 0.5 ng/mL for vilazodone and 0.25 ng/mL for M17. […]

[2] = In vitro dissolution, USP apparatus 2 (paddle); format: physicochemical; conditions: at first 30 minutes; FIGS. 4-6
Procedure: In the dissolution testing guideline for immediate release profiles, material dissolves over a period of time, and its dissolution is measured at given intervals during this period. A minimum of three time points is recommended and generally cover early, middle and late stages of the dissolution profile. […] In presence of minor changes to the drug dosage forms, a single point dissolution test may be adequate to ensure product dosing compliance. For major changes, a dissolution profile comparison performed under identical conditions for the product before and after the changes(s) is recommended. […] The term “similarity factor” or F2 factor as used herein refers to one way of comparing dissolution profiles of two different products. (Multisource Pharmaceutical Products: Guidelines on Registration Requirements to establish Interchangeability, Quality Assurance and Safety: Medicines, Essential Drugs and Medicines Policy, World Health Organization, 1211 Geneva 27, Switzerland). This model independent mathematical approach compares the dissolution profile of the two products: test and reference (or two strengths, or pre- and post-approved products from the same manufacturer) and calculates percent (%) difference between two curves at each time point and measures the relative error between two curves. Tests are recommended to be performed under the same test conditions. […]

plasma proteins = assay: Vilazodone protein binding by equilibrium dialysis (Studies 1 and 2); format: in vitro ADME; conditions: both sexes, human, plasma of study participants, read-out: mean percent free fraction in plasma
Procedure: In both studies, additional samples (6 mL each) were collected to determine vilazodone protein binding: in Study 1, these samples were collected in duplicate at predose hour 0 and postdose hours 6 and 12; in Study 2, the samples were collected at predose hour 0 and postdose hours 4 and 12, with an additional sample (13 mL) collected at hour 0 for the determination of albumin concentration.
The plasma concentrations of vilazodone (Studies 1 and 2) and its metabolite M17 (Study 2), vilazodone concentrations in urine (Study 1), and protein binding were determined using liquid chromatography with tandem mass spectrometry (LC/MS/MS) methodologies that have been validated for the following ranges: plasma vilazodone, 0.75 to 250 ng/mL (Study 1) and 0.5 to 250 ng/mL (Study 2); plasma M17, 0.25-125 ng/mL; urine vilazodone, 1.0-200 ng/mL; vilazodone protein binding, high range (sample compartment) 2.7-108 ng/mL, low range (buffer compartment) 0.1-5.4 ng/mL. The extent of vilazodone binding to plasma proteins was determined using equilibrium dialysis.

[3] = Hepatic impairment studies: safety assessments (AEs, ECG); format: in vivo, human; conditions: for diarrhea, participants: both studies
Procedure: Safety assessments included vital signs, clinical laboratory evaluations, ECG, and the collection of adverse events (AEs). […] AEs were recorded at all study visits and as they were reported spontaneously by the participants, up to 30 days after the vilazodone dose. Participants were asked about their well-being at each visit.
Safety assessments were summarized without statistical comparisons. The last assessment made before the first dose of study drug was used as a baseline for all subsequent analyses.

[4] = group with severe hepatic impairment
[5] = matched controls, 20 mg single dose

Sequence of norepinephrine reuptake site (P23975 whole entry): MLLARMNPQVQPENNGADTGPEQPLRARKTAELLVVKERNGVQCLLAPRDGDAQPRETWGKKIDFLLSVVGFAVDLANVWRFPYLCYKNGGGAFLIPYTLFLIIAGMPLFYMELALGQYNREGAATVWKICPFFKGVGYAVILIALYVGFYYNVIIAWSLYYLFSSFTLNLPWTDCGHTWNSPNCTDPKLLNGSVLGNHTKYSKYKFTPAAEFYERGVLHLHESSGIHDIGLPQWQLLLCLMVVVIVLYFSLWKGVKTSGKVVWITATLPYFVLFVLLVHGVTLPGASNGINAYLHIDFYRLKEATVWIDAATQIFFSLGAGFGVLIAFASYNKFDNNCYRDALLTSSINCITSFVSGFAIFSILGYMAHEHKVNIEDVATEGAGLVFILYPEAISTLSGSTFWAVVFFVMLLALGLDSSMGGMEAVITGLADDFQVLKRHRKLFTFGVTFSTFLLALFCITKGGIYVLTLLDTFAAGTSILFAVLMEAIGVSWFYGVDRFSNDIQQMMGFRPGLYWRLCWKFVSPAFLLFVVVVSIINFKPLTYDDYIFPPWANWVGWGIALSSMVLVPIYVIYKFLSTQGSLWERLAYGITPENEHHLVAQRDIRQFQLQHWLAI

SMILES: Cl.N#Cc1ccc2[nH]cc(CCCCN3CCN(c4ccc5oc(C(N)=O)cc5c4)CC3)c2c1 [Vilazodone, 1-[4-(5-cyanoindol-3-yl)butyl]-4-(2-carbamoyl-benzofuran-5-yl)-piperazine hydrochloride]
- binding to norepinephrine reuptake site [1]: not
- concentration at 7 day (clinical): 36 ng/mL
- concentration at 8 day (clinical): 45.1 ng/mL
- concentration at 9 day (clinical): 45.3 ng/mL
- vilazodone HCl released [2]: 80%
- fraction unbound (plasma proteins; all participants with severe hepatic impairment): 0.0224
- fraction unbound (plasma proteins; healthy controls): 0.01 to 0.014
- fraction unbound (plasma proteins; participants with mild or moderate hepatic impairment): 0.016
- fraction unbound (plasma proteins; participants with severe hepatic impairment who did not vomit): 0.0213
- decrease in QT interval (mean, screening to end of study) [3, 4]: 14.9 ms
- increase in QTcB interval (Bazett formula; mean, screening to end of study) [3, 4]: 8.7 ms
- deaths, serious AEs, discontinuations due to an AE ([3]; hepatic impairment studies, 20 mg single dose): No deaths, serious AEs, or discontinuations due to an AE
- diarrhea, participants [3, 5]: 5 participants
- vomiting, participants [3, 5]: 0 participants
- vomiting, participants ([3]; participants with hepatic impairment (all severe), 20 mg single dose): 4 participants
- diarrhea, participants ([3]; participants with hepatic impairment, 20 mg single dose): 10 participants
